This is an account of results in patent publication US8410302B2, “Methoxyimino compounds and fungicide composition comprising same” (Kyung Nong Corporation, priority 2007, dated 2013).

Molecules are shown by their SMILES. Where two headings read alike, the source gives them in different places.

The test system of assay [1] is Rhizoctonia solani AG-1. As to the kind of experiment: Fungicidal activity against rice sheath blight (RSB) disease, control value. To be noted: for pest or weed control at 2 ppm / pest or weed control at 10 ppm / pest or weed control at 50 ppm / pest or weed control at 100 ppm: Rhizoctonia solani, AG1, in Oryza sativa, read-out: RSB control value (C.V.).
Assay [2] concerns Pyricularia oryzae Carvara KA301. As to the kind of experiment: whole plant or invertebrate. Conditions: for pest or weed control at 2 ppm / pest or weed control at 10 ppm / pest or weed control at 50 ppm / pest or weed control at 100 ppm: Pyricularia oryzae, read-out: RCB control value (C.V.). In kind it is in vivo.
For assay [3], the system named is Phytophthora infestans. As to the kind of experiment: whole plant or invertebrate. The assay is classed as in vivo. To be noted: for pest or weed control at 2 ppm / pest or weed control at 10 ppm / pest or weed control at 50 ppm / pest or weed control at 100 ppm: Phytophthora infestans, in Solanum lycopersicum, read-out: TLB control value (C.V.).
Assay [4] has as its system Botrytis cinerae. As to the kind of experiment: Fungicidal activity against cucumber gray mold rot (CGM) disease, control value. To be noted: for pest or weed control at 100 ppm / pest or weed control at 50 ppm: Botrytis, read-out: CGM control value (C.V.). In kind it is in vivo.
Assay [5] deals with Erysiphae graminis. As to the kind of experiment: Fungicidal activity against barley powdery mildew (BPM) disease, control value. In kind it is in vivo. To be noted: for pest or weed control at 2 ppm / pest or weed control at 10 ppm / pest or weed control at 50 ppm / pest or weed control at 100 ppm: 168 h, read-out: BPM control value (C.V.).
For assay [6], the system named is Puccinia recondita. As to the kind of experiment: Fungicidal activity against wheat leaf rust (WLR) disease, control value. To be noted: for pest or weed control at 2 ppm / pest or weed control at 10 ppm / pest or weed control at 50 ppm / pest or weed control at 100 ppm: read-out: WLR control value (C.V.). In kind it is in vivo.
The mark [7] stands for this setting: Hordeum vulgare, 10 ppm, barley powdery mildew.
[8] abbreviates: Hordeum vulgare, 50 ppm, barley powdery mildew.
Where [9] appears, read: Hordeum vulgare, barley powdery mildew.

In the case of `CNC(=O)/C(=N/OC)c1ccccc1COc1ccc(C=C(Cl)Cl)c(Cl)c1` [Example 58, (E)-2-(2-((3-chloro-4-(2,2-dichlorovinyl)phenoxy)methyl)phenyl)-2-methoxyimino-N-methylacetamide], the pest or weed control at 2 ppm was 90% in assay [1]; 100% in assay [2]; 99% in assay [3]; 100% in assay [5] (2 ppm); 100% in assay [6] (Puccinia recondita, 2 ppm). Also, the pest or weed control at 10 ppm in assay [1] worked out at 100%; in assay [2], 100%; in assay [3] it was 100%; in assay [5] (10 ppm), 100%; in assay [6] (Puccinia recondita, 10 ppm), 100%. Also, the pest or weed control at 50 ppm is 100% in assay [1]; 100% in assay [2]; 100% in assay [3]; 100% in assay [5] (50 ppm); 100% in assay [6] (Puccinia recondita, 50 ppm). The pest or weed control at 100 ppm in assay [1] came to 100%; in assay [2], 100%; in assay [3], 100%; in assay [4] it was 35%; in assay [5] it was 100%; in assay [6] (Puccinia recondita) it was 100%.
Take `CO/N=C(/C(=O)OC)c1ccccc1COc1cc(Br)ccc1C=C(Cl)Cl` [Example 61, methyl-(E)-2-(2-((5-bromo-2-(2,2-dichlorovinyl)phenoxy)methyl)phenyl)-2-methoxyiminoacetate]: the pest or weed control at 2 ppm came to 95% in assay [1]; 99% in assay [2]; 99% in assay [3]; 100% in assay [5] (2 ppm); 100% in assay [6] (Puccinia recondita, 2 ppm). Besides, the pest or weed control at 10 ppm is 100% in assay [1]; 100% in assay [2]; 100% in assay [3]; 100% in assay [5] (10 ppm); 100% in assay [6] (Puccinia recondita, 10 ppm). Further, the pest or weed control at 50 ppm came out at 100% in assay [1]; 100% in assay [2]; 100% in assay [3]; 40% in assay [4] (50 ppm); 100% in assay [5] (50 ppm); 100% in assay [6] (Puccinia recondita, 50 ppm). Also, the pest or weed control at 100 ppm in assay [1] came out at 100%; in assay [2], 100%; in assay [3], 100%; in assay [4], 85%; in assay [5] it was 100%; in assay [6] (Puccinia recondita), 100%.
Regarding `CNC(=O)/C(=N/OC)c1ccccc1COc1cc(Br)ccc1C=C(Br)Br` [Example 86, (E)-2-(2-((5-bromo-2-(2,2-dibromovinyl)phenoxy)methyl)phenyl)-2-methoxyimino-N-methylacetamide], the pest or weed control at 2 ppm in assay [1] is 65%; in assay [2], 30%; in assay [3], 70%; in assay [5] (2 ppm), 90%; in assay [6] (Puccinia recondita, 2 ppm), 95%. Besides, the pest or weed control at 10 ppm in assay [1] was 98%; in assay [2], 90%; in assay [3] it was 90%; in assay [5] (10 ppm) it was 100%; in assay [6] (Puccinia recondita, 10 ppm) it was 100%. The pest or weed control at 50 ppm was found to be 100% in assay [1]; 100% in assay [2]; 98% in assay [3]; 100% in assay [5] (50 ppm); 100% in assay [6] (Puccinia recondita, 50 ppm). Also, the pest or weed control at 100 ppm in assay [1] was determined as 100%; in assay [2], 100%; in assay [3], 100%; in assay [4], 40%; in assay [5], 100%; in assay [6] (Puccinia recondita), 100%.
For the molecule `CO/N=C(/C(=O)OC)c1ccccc1COc1ccc(C=C(Cl)Cl)cc1Br` [Example 53, methyl-(E)-2-(2-((2-bromo-4-(2,2-dichlorovinyl)phenoxy)methyl)phenyl)-2-methoxyiminoacetate], the pest or weed control at 2 ppm in assay [1] stood at 85%; in assay [2], 70%; in assay [3], 90%; in assay [5] (2 ppm), 100%; in assay [6] (Puccinia recondita, 2 ppm), 100%. Moreover, the pest or weed control at 10 ppm is 98% in assay [1]; 97% in assay [2]; 99% in assay [3]; 100% in assay [5] (setting [7]); 100% in assay [6] (10 ppm, wheat leaf rust). Besides, the pest or weed control at 50 ppm in assay [1] came to 100%; in assay [2], 100%; in assay [3], 100%; in assay [5] (setting [8]), 100%; in assay [6] (50 ppm, wheat leaf rust), 100%. Further, the pest or weed control at 100 ppm came to 100% in assay [1]; 100% in assay [2]; 100% in assay [3]; 50% in assay [4] (cucumber gray mold rot); 100% in assay [5] (setting [9]); 100% in assay [6] (wheat leaf rust).
`CO/C=C(/C(=O)OC)c1ccccc1Oc1cc(Oc2ccccc2C#N)ncn1` [Azoxystrobin, reference compound]: the “RSB control value (C.V.)” value amounted to 67% in assay [1] (0.4 ppm), 98% in assay [1] (2 ppm), 100% in assay [1] (10 ppm) and 100% in assay [1] (50 ppm). Further, the “RCB control value (C.V.)” value stood at 30% in assay [2] (0.4 ppm), 90% in assay [2] (2 ppm), 100% in assay [2] (10 ppm) and 100% in assay [2] (50 ppm). Besides, the “TLB control value (C.V.)” value in assay [3] (0.4 ppm) was 50%; in assay [3] (2 ppm) it was 90%; in assay [3] (10 ppm), 98%; in assay [3] (50 ppm) it was 100%. In addition, the “CGM control value (C.V.)” value in assay [4] (50 ppm) is 40%. In addition, the “BPM control value (C.V.)” value in assay [5] (0.4 ppm) was 95%; in assay [5] (2 ppm), 100%; in assay [5] (10 ppm) it was 100%; in assay [5] (50 ppm), 100%. In addition, the “WLR control value (C.V.)” value in assay [6] (0.4 ppm) came out at 95%; in assay [6] (2 ppm) it was 100%; in assay [6] (10 ppm), 100%; in assay [6] (50 ppm), 100%.
On to `CNC(=O)/C(=N/OC)c1ccccc1COc1cccc(C=C(Cl)Br)c1` [Example 16, (2E)-2-(2-((3-(2-bromo-2-chlorovinyl)phenoxy)methyl)phenyl)-2-methoxyimino-N-methylacetamide], for which the pest or weed control at 2 ppm in assay [1] was 95%; in assay [2], 100%; in assay [3], 93%; in assay [5] (Hordeum vulgare, 2 ppm, barley powdery mildew), 100%; in assay [6] (2 ppm, wheat leaf rust), 100%. Also, the pest or weed control at 10 ppm was determined as 98% in assay [1]; 100% in assay [2]; 95% in assay [3]; 100% in assay [5] (setting [7]); 100% in assay [6] (10 ppm, wheat leaf rust). Further, the pest or weed control at 50 ppm in assay [1] came to 100%; in assay [2] it was 100%; in assay [3], 100%; in assay [5] (setting [8]), 100%; in assay [6] (50 ppm, wheat leaf rust), 100%. Moreover, the pest or weed control at 100 ppm came out at 100% in assay [1]; 100% in assay [2]; 100% in assay [3]; 65% in assay [4] (cucumber gray mold rot); 100% in assay [5] (setting [9]); 100% in assay [6] (wheat leaf rust).
With `CNC(=O)/C(=N/OC)c1ccccc1COc1cc(Br)ccc1C=C(Cl)Cl` [Example 62, (E)-2-(2-((5-bromo-2-(2,2-dichlorovinyl)phenoxy)methyl)phenyl)-2-methoxyimino-N-methylacetamide], the pest or weed control at 2 ppm in assay [1] stood at 93%; in assay [2] it was 90%; in assay [3], 99%; in assay [5] (2 ppm) it was 99%; in assay [6] (Puccinia recondita, 2 ppm), 100%. In addition, the pest or weed control at 10 ppm in assay [1] came to 100%; in assay [2], 99%; in assay [3], 100%; in assay [5] (10 ppm), 100%; in assay [6] (Puccinia recondita, 10 ppm), 100%. In addition, the pest or weed control at 50 ppm in assay [1] is 100%; in assay [2] it was 100%; in assay [3] it was 100%; in assay [4] (50 ppm) it was 30%; in assay [5] (50 ppm), 100%; in assay [6] (Puccinia recondita, 50 ppm) it was 100%. Also, the pest or weed control at 100 ppm came to 100% in assay [1]; 100% in assay [2]; 100% in assay [3]; 85% in assay [4]; 100% in assay [5]; 100% in assay [6] (Puccinia recondita).
